Experimental data from patent US12077503B2, “Substituted cyclic amides and their use as herbicides” (FMC CORPORATION, priority 2015, dated 2024).

What was measured:
Type in all cases: in vivo
[1] = test system: barnyardgrass (Echinochloa crus-galli); assay: Test A preemergence; settings: Echinochloa crus-galli, pre-emergence, 240 h, 0 to 100 scale where 0 is no effect and 100 is complete control, read-out: Barnyardgrass plant response rating; for pest or weed control at 31 g/ha: 31 g ai/ha, Preemergence; for pest or weed control at 125 g/ha: 125 g ai/ha, preemergence, visual injury rating, approximately 10 d
Outline: (§1)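 Greenhouse, ~10 d after spray; visual injury vs untreated controls, 0 = no effect, 100 = complete control. Preemergence: directed soil spray over planted seeds. Postemergence: plants 2–10 cm, 1–2 leaf stage. Loam/sand blend. Compound in non-phytotoxic solvent with surfactant.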

[2] = test system: giant foxtail (Setaria faberii); assay: Test A preemergence; settings: Setaria faberi, pre-emergence, 240 h, 0 to 100 scale where 0 is no effect and 100 is complete control, read-out: Foxtail, Giant plant response rating; for pest or weed control at 31 g/ha: 31 g ai/ha, Preemergence; for pest or weed control at 125 g/ha: 125 g ai/ha, preemergence, visual injury rating, approximately 10 d
Outline: as §1

[3] = test system: ryegrass, Italian (Italian ryegrass, Lolium multiflorum); assay: Test A preemergence; settings: Lolium multiflorum, pre-emergence, 240 h, 0 to 100 scale where 0 is no effect and 100 is complete control, read-out: Ryegrass, Italian plant response rating; for pest or weed control at 31 g/ha: 31 g ai/ha, Preemergence; for pest or weed control at 125 g/ha: 125 g ai/ha, preemergence, visual injury rating, approximately 10 d
Outline: as §1

[4] = test system: Kochia (Kochia scoparia); assay: Test A preemergence; settings: Bassia scoparia, pre-emergence, 240 h, 0 to 100 scale where 0 is no effect and 100 is complete control, read-out: Kochia plant response rating; for pest or weed control at 31 g/ha: 31 g ai/ha, Preemergence; for pest or weed control at 125 g/ha: 125 g ai/ha, preemergence, visual injury rating, approximately 10 d
Outline: as §1

[5] = test system: pigweed (Amaranthus retroflexus); assay: Test A preemergence; settings: Amaranthus retroflexus, pre-emergence, 240 h, 0 to 100 scale where 0 is no effect and 100 is complete control, read-out: Pigweed plant response rating; for pest or weed control at 31 g/ha: 31 g ai/ha, Preemergence; for pest or weed control at 125 g/ha: 125 g ai/ha, preemergence, visual injury rating, approximately 10 d
[6] = test system: ragweed (common ragweed, Ambrosia elatior); assay: Test A preemergence; settings: Ambrosia artemisiifolia, pre-emergence, 240 h, 0 to 100 scale where 0 is no effect and 100 is complete control, read-out: Ragweed plant response rating; for pest or weed control at 31 g/ha: 31 g ai/ha, Preemergence; for pest or weed control at 125 g/ha: 125 g ai/ha, preemergence, visual injury rating, approximately 10 d
Outline: as §1

[7] = test system: barnyardgrass (Echinochloa crus-galli); assay: Test B flooded paddy test; settings: Echinochloa crus-galli, 250 g ai/ha, Flood; 0 to 100 scale where 0 is no effect and 100 is complete control; read-out: Barnyardgrass plant response rating
Outline: (§2)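 Evaluation by eye, against controls, occurred 13–15 d post-treatment in a greenhouse, using a 0 (no effect) to 100 (complete control) scale. Application was into the paddy water, 3 cm deep over the soil, on 2-leaf plants.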

[8] = test system: sedge, umbrella (small-flower umbrella sedge, Cyperus difformis); assay: Test B flooded paddy test; settings: Cyperus difformis, 250 g ai/ha, Flood; 0 to 100 scale where 0 is no effect and 100 is complete control; read-out: Sedge, Umbrella plant response rating
Outline: as §2

[9] = test system: rice (Oryra sativa); assay: Test B flooded paddy test; settings: Oryza sativa, 250 g ai/ha, Flood; 0 to 100 scale where 0 is no effect and 100 is complete control; read-out: Rice plant response rating
Outline: as §2

[10] = test system: ducksalad (Heteranthera limosa); assay: Test B flooded paddy test; settings: Heteranthera limosa, 250 g ai/ha, Flood; 0 to 100 scale where 0 is no effect and 100 is complete control; read-out: Ducksalad plant response rating
Outline: as §2

[11] = test system: Galium (catchweed bedstraw, Galium aparine); assay: Test A postemergence; settings: Galium, post-emergence, 240 h, read-out: Galium plant response rating (0 to 100 scale); for pest or weed control at 125 g/ha: 125 g ai/ha, postemergence, visual injury vs untreated controls after approx. 10 d, 0 = no effect, 100 = complete control; for pest or weed control at 31 g/ha: Postemergence, 31 g ai/ha, 0 is no effect, 100 is complete control
Outline: as §1

[12] = test system: barnyardgrass (Echinochloa crus-galli); assay: Test A postemergence; settings: Echinochloa crus-galli, post-emergence, 240 h, read-out: Barnyardgrass plant response rating (0 to 100 scale); for pest or weed control at 125 g/ha: 125 g ai/ha, postemergence, visual injury vs untreated controls after approx. 10 d, 0 = no effect, 100 = complete control; for pest or weed control at 31 g/ha: Postemergence, 31 g ai/ha, 0 is no effect, 100 is complete control
Outline: as §1

[13] = test system: giant foxtail (Setaria faberii); assay: Test A postemergence; settings: Setaria faberi, post-emergence, 240 h, read-out: Foxtail, Giant plant response rating (0 to 100 scale); for pest or weed control at 125 g/ha: 125 g ai/ha, postemergence, visual injury vs untreated controls after approx. 10 d, 0 = no effect, 100 = complete control; for pest or weed control at 31 g/ha: Postemergence, 31 g ai/ha, 0 is no effect, 100 is complete control
Outline: as §1

[14] = test system: ryegrass, Italian (Italian ryegrass, Lolium multiflorum); assay: Test A postemergence; settings: Lolium multiflorum, post-emergence, 240 h, read-out: Ryegrass, Italian plant response rating (0 to 100 scale); for pest or weed control at 125 g/ha: 125 g ai/ha, postemergence, visual injury vs untreated controls after approx. 10 d, 0 = no effect, 100 = complete control; for pest or weed control at 31 g/ha: Postemergence, 31 g ai/ha, 0 is no effect, 100 is complete control
Outline: as §1

[15] = test system: blackgrass (Alopecurus myosuroides); assay: Test A postemergence; settings: Alopecurus myosuroides, post-emergence, 240 h, read-out: Blackgrass plant response rating (0 to 100 scale); for pest or weed control at 125 g/ha: 125 g ai/ha, postemergence, visual injury vs untreated controls after approx. 10 d, 0 = no effect, 100 = complete control; for pest or weed control at 31 g/ha: Postemergence, 31 g ai/ha, 0 is no effect, 100 is complete control
Outline: as §1

[16] = test system: Kochia (Kochia scoparia); assay: Test A postemergence; settings: Bassia scoparia, post-emergence, 240 h, read-out: Kochia plant response rating (0 to 100 scale); for pest or weed control at 125 g/ha: 125 g ai/ha, postemergence, visual injury vs untreated controls after approx. 10 d, 0 = no effect, 100 = complete control; for pest or weed control at 31 g/ha: Postemergence, 31 g ai/ha, 0 is no effect, 100 is complete control
Outline: as §1

[17] = test system: pigweed (Amaranthus retroflexus); assay: Test A postemergence; settings: Amaranthus retroflexus, post-emergence, 240 h, read-out: Pigweed plant response rating (0 to 100 scale); for pest or weed control at 125 g/ha: 125 g ai/ha, postemergence, visual injury vs untreated controls after approx. 10 d, 0 = no effect, 100 = complete control; for pest or weed control at 31 g/ha: Postemergence, 31 g ai/ha, 0 is no effect, 100 is complete control
Outline: as §1

[18] = test system: wheat (Triticum aestivum); assay: Test A postemergence; settings: Triticum aestivum, post-emergence, 240 h, read-out: Wheat plant response rating (0 to 100 scale); for plant injury at 31 g/ha: Postemergence, 31 g ai/ha, 0 is no effect, 100 is complete control
Outline: as §1

[19] = test system: ragweed (common ragweed, Ambrosia elatior); assay: Test A postemergence; settings: Ambrosia artemisiifolia, post-emergence, 240 h, read-out: Ragweed plant response rating (0 to 100 scale); for pest or weed control at 125 g/ha: 125 g ai/ha, postemergence, visual injury vs untreated controls after approx. 10 d, 0 = no effect, 100 = complete control; for pest or weed control at 31 g/ha: Postemergence, 31 g ai/ha, 0 is no effect, 100 is complete control
Outline: as §1

[20] = test system: corn (Zea mays); assay: Test A postemergence; settings: Zea mays, post-emergence, 240 h, read-out: Corn plant response rating (0 to 100 scale); for plant injury at 125 g/ha: 125 g ai/ha, postemergence, visual injury vs untreated controls after approx. 10 d, 0 = no effect, 100 = complete control; for plant injury at 31 g/ha: Postemergence, 31 g ai/ha, 0 is no effect, 100 is complete control
Outline: as §1

Row | Structure (SMILES) | pest or weed control at 31 g/ha [1] | pest or weed control at 125 g/ha [1] | pest or weed control at 31 g/ha [2] | pest or weed control at 125 g/ha [2] | pest or weed control at 31 g/ha [3] | pest or weed control at 125 g/ha [3] | pest or weed control at 31 g/ha [4] | pest or weed control at 125 g/ha [4] | pest or weed control at 31 g/ha [5] | pest or weed control at 125 g/ha [5] | pest or weed control at 31 g/ha [6] | pest or weed control at 125 g/ha [6] | pest or weed control at 250 g/ha [7] | pest or weed control at 250 g/ha [8] | pest or weed control at 250 g/ha [9] | pest or weed control at 250 g/ha [10] | pest or weed control at 125 g/ha [11] | pest or weed control at 31 g/ha [11] | pest or weed control at 125 g/ha [12] | pest or weed control at 31 g/ha [12] | also measured
1 | CN1C[C@H](c2ccc(C#N)c(F)c2)[C@@H](C(=O)Nc2ccccc2F)C1=O [Compound 1190] | 50% | 90% | 60% | 90% | 0% | 0% | 0% | 0% | 0% | 0% | 0% | 0% | 55% | 0% | 40% | 90% | 20% | 0% | 60% | 0% | pest or weed control at 125 g/ha [13]: 20%; pest or weed control at 31 g/ha [13]: 0%; pest or weed control at 125 g/ha [14]: 0%; pest or weed control at 31 g/ha [14]: 0%; pest or weed control at 125 g/ha [15]: 0%; pest or weed control at 31 g/ha [15]: 0%; pest or weed control at 125 g/ha [16]: 0%; pest or weed control at 31 g/ha [16]: 0%; pest or weed control at 125 g/ha [17]: 0%; pest or weed control at 31 g/ha [17]: 0%; plant injury at 125 g/ha ([18]; 125 g ai/ha, postemergence, visual injury vs untreated controls after approx. 10 d, 0 = no effect, 100 = complete control): 0%; plant injury at 31 g/ha [18]: 0%; pest or weed control at 125 g/ha [19]: 0%; pest or weed control at 31 g/ha [19]: 0%; plant injury at 125 g/ha [20]: 0%; plant injury at 31 g/ha [20]: 0%
2 | Cn1ccc2ccc([C@H]3CNC(=O)[C@@H]3C(=O)Nc3cccc(F)c3F)cc21 [Compound 1263] | 0% | 0% | 0% | 0% | 0% | 0% | 0% | 0% | 0% | 0% | 0% | 0% | 0% | 0% | 0% | 30% | 0% | 0% | 0% | 0% | pest or weed control at 125 g/ha [13]: 0%; pest or weed control at 31 g/ha [13]: 0%; pest or weed control at 125 g/ha [14]: 0%; pest or weed control at 31 g/ha [14]: 0%; pest or weed control at 125 g/ha [15]: 0%; pest or weed control at 31 g/ha [15]: 0%; pest or weed control at 125 g/ha [16]: 0%; pest or weed control at 31 g/ha [16]: 0%; pest or weed control at 125 g/ha [17]: 0%; pest or weed control at 31 g/ha [17]: 0%; plant injury at 31 g/ha [18]: 0%; pest or weed control at 125 g/ha [19]: 0%; pest or weed control at 31 g/ha [19]: 0%; plant injury at 125 g/ha [20]: 0%; plant injury at 31 g/ha [20]: 0%
